melting point | SMILES
144 to 146 °C | Cc1ccc2nc(SCC(=O)O)oc2c1
137 to 140 °C | COc1nc2cccc(C=O)c2nc1OC
222 °C | NC(CC(=O)O)c1ccccc1[N+](=O)[O-] (stereo not given)
194 °C | c1ccc(-c2nnc3c4c(c(OCc5ccccn5)nn23)CCCC4)cc1
113 to 114 °C | O=[N+]([O-])c1cc(F)cc2c1OCC2
139 to 141 °C | CCN(CC)CCOc1ccc(Nc2ncc3c(n2)N(CC)C(=O)N(c2cc(OC)cc(OC)c2)C3)cc1
150 °C | CCC(=O)Nc1nc(C(Cl)(Cl)Cl)ns1
143 to 144 °C | O=C1N(Cc2cnccn2)c2ccccc2C12COc1cc3c(cc12)CCO3 (stereo not given)
115 °C | CCN(CC)C(=O)CCc1nc(-c2cccc(C(F)(F)F)c2)nc2ccccc12
197 to 199 °C | Cc1cc(C(=O)NN=C(N)CS(=O)(=O)c2ccccc2)oc1C
139 to 140 °C | CCCCCS(=O)(=O)NC(=O)/C=C/c1cc(OC(C)C)nn1Cc1ccc(C(F)(F)F)cc1Cl
98 to 100 °C | COc1ccc(/C=C/c2ccncc2)cc1OCCCCCc1ccccc1
179 to 180 °C | CCOc1cnccc1-c1nc2n(C3CCCC3)[nH]c(CC)c-2c(=O)n1
227 to 228 °C | CC(C)(C)C(Nc1c(Nc2cccnc2)c(=O)c1=O)C(Oc1ccccc1)C(N)=O (stereo not given)
208 to 210 °C | COc1ccc(C(CC(=O)NCc2ccccc2)N2C(=O)c3ccccc3C2=O)cc1OC (stereo not given)
100 °C | CCCC(=O)NCC1CCc2c(OC)ccc3cccc1c23 (stereo not given)
161 to 163 °C | Cn1nc(-c2c(Cl)cccc2Cl)nc1-c1cccs1
158 °C | N/C(=C1/Sc2ccccc2C1=O)c1ccc(F)cc1
133 °C | COCCOCOc1c(C(C)(C)C)cc(C(=N)NN)cc1C(C)(C)C
55 to 63 °C | CCOC(=O)Cc1ccc(NCCNC(=O)C2Cc3ccccc3N2S(=O)(=O)c2ccc(-c3cc(C(F)(F)F)ccc3Cl)cc2)cc1 (stereo not given)
208 to 210 °C | Cc1c(F)cc2c(=O)c(C(=O)O)cn(C3CC3)c2c1F
124 °C | CCOc1ccc(C=[N+]([O-])C2CCCCC2)cc1
187 to 188 °C | COc1cc2c(cc1OC)N(C(=O)c1ccc(-c3ccccc3C(F)(F)F)c(C)c1)Cc1cccn1C2
146 to 148 °C | CC(C)(CO)NCC(=O)N1C[C@@H](F)C[C@H]1C#N

melting point | SMILES
122 to 123 °C | Clc1cccc(-n2c(/C=C/c3ccccc3)nc3ccccc32)n1
172 to 173 °C | Cc1cccc(-c2ccccc2)c1NC(=S)NC(=O)c1ccccc1
168 °C | O=C(O)CCCc1cc2nc(C(F)(F)F)ccc2n1S(=O)(=O)c1ccccc1
124 to 125 °C | COC(=O)c1cc2c3cc(OC)ccc3n(C)c2s1
194 to 197 °C | O=c1[nH]c2ncc(-c3ccc(-c4nnc[nH]4)cc3)nc2n1CCN1CCCCC1
121 to 123 °C | CCCC(=O)NCc1cccc2c1C(=O)N(C1CCC(=O)NC1=O)C2=O (stereo not given)
247 to 249 °C | CC(C)c1ccc2nc3ccc(C(=O)NCCCCc4cccnc4)cc3c(=O)n2c1
135 °C | S=c1cc(-c2ccc(Cl)cc2)ss1
141 to 143 °C | O=C(O)c1ccc(NCCCCCc2ccccc2)cc1
148 to 149 °C | CCOc1cc(/C(=C\C#N)c2ccc(NC(=O)OC)c(OC)c2)ccc1OC
95 to 98 °C | CC=Cc1cccc(C(=O)C=Cc2ccccc2)c1O
95.9 to 97.6 °C | O=C(Nc1cccnc1)N1CCC(=C2c3ccc(Cl)cc3C=Cc3cccnc32)CC1
151 to 152 °C | COc1cccc(S(=O)(=O)Nc2nccnc2OC)c1Cl
105 to 108 °C | CC(C)c1cc(CCC(=O)O)n(Cc2ccc(Cl)cc2Cl)n1
277 to 285 °C | Cn1c(=O)[nH]c(=O)c2cccnc21
41 to 41.5 °C | CCCCCCCCOc1ccc(C2CN=C(c3c(F)cccc3Cl)S2)cc1 (stereo not given)
167 to 175 °C | CC(C)(C)c1csc(NC(=O)c2ccn3c(=O)c(/C=C/C(=O)O)c(N4CCCC(CC(=O)NCCO)C4)nc3c2)n1 (stereo not given)
205 to 207 °C | N=C(c1ccccc1)c1cc(F)cc(NC(=O)/C=C/c2ccccn2)c1
158 to 159 °C | O=C(c1cc(Cl)ccc1Nc1ccncc1)N1CCCCC1
172 to 174 °C | CC(C)CC(C(=O)c1cccc(Cl)c1)c1ccccc1NC(C)(C)C (stereo not given)
74 to 76 °C | CCCCCCCCCCCCCCCCCC(=O)NCC(C)(C)NCC(O)c1cc(Cl)c(N)c(Cl)c1 (stereo not given)
92 to 94 °C | CC12CCC(C(=O)N(CCCCN3CCN(c4ncccn4)CC3)C1=O)C2(C)C (stereo not given)
115 to 117 °C | CCCc1cc(=O)n(-c2cc(OC(C)C)c(Cl)cc2F)c(=O)n1C
106 to 111 °C | O=C(O)C(Oc1ccc(F)cc1)c1ccc(Oc2ccc(Cl)cc2)cc1 (stereo not given)

melting point | SMILES
104 to 108 °C | Cn1nc(-c2ccccc2Cl)nc1-c1ccc(Oc2ccc(C(F)(F)F)cn2)cc1Cl
172 to 184 °C | COc1ccc(COC(C)(C)C(=O)Nc2c(N)n(Cc3ccc(OC)c(OC4CCCC4)c3)c(=S)[nH]c2=O)cc1
107 to 113 °C | N#Cc1nc(Cl)c(-c2c(F)cc(F)cc2F)c(N2CCCO2)n1
95 to 97 °C | COc1ccc(-n2nc(CO)cc2-c2ccc(Cl)cc2)cc1
168 to 170 °C | COCCc1nc2c(N)nc3c(c2n1CCOCCN(C)C(=O)Nc1ccccc1)CCCC3
191 to 196 °C | CC(=O)O[C@H]1C[C@@H](n2ccc(=O)cc2)[C@H](O)[C@@H]1O (racemic)
82 to 85 °C | O=CN1CC2CCCc3c(C(=O)CCCl)ccc1c32 (stereo not given)
93 to 95 °C | COC(=O)c1cc(OC)cc(OC)c1N
224 to 225 °C | CCCn1c(=O)c2c(nc(/C=C/c3cc(OC(C)=O)cc(OC(C)=O)c3)n2C)n(CCC)c1=O
116 °C | c1ccc(OCCN2CCC(CNc3nc4ccccc4s3)CC2)cc1
96 to 97 °C | CCCCCCCCc1ccc(C(=O)CCCCC(=O)O)cc1
33 to 34 °C | CCCCCCCCc1ccc(C(=O)CBr)cc1
127 to 128 °C | CCC1(CCCCCN2CCN(c3ccccn3)CC2)C(=O)Nc2ccccc21 (stereo not given)
186 °C | Cc1ccc(CC2CCN(C(=O)C(=O)Nc3ccc4c(c3)CS(=O)(=O)N4)CC2)cc1
204 to 206 °C | CCOC(=O)c1csc(Nc2nc(C(C)(C)C)c(O)c(C(C)(C)C)n2)n1
> 300 °C | COc1ccc2c(c1)Nc1[nH]cnc(=O)c1C2
151 °C | COc1ccccc1CNc1ccc2cc(Nc3cccc(C(F)(F)F)n3)ccc2n1
87 to 88 °C | CCOC(=O)CC(NCc1ccccc1)=C(C(C)=O)C(=O)OCC
154 to 155 °C | CC(C)[C@H]1CC[C@H](C(=O)N[C@H](Cc2ccc(OCCN(C)c3ccccn3)cc2)C(=O)O)CC1
76 to 77 °C | CS(=O)(=O)c1ccc(-c2cc(CCCO[N+](=O)[O-])nn2CC2CCCCC2)cc1
243 to 244 °C | O=C(Nc1cc(Cl)cc(Cl)c1)c1cc(Br)ccc1O
108 to 109 °C | CCCc1c(OCCCCCCc2ccc(CCCCC(=O)O)cc2CCC(=O)O)ccc2c1OCCC2=O
37 to 39 °C | CC(O)COc1ccc(Oc2cccc(F)c2)cc1 (stereo not given)
295 to 297 °C | CC1N=NC2=CN=C(c3ccccc3Cl)c3cc(C(=O)Cl)ccc3N21 (stereo not given)

melting point | SMILES
162 to 163 °C | CC1(C)N=C(c2ccccc2)C(c2ccc(N)cc2)O1 (stereo not given)
88 to 92 °C | Cn1c(COc2ccc(CC3SC(=O)N(C(c4ccccc4)(c4ccccc4)c4ccccc4)C3=O)cc2)nc2ccc(OCc3ccccc3)nc21 (stereo not given)
105 to 106 °C | COc1cc(COc2nn(Cc3ccc(Oc4ccccc4)cc3)cc2C(N)=O)ccc1OCc1nc(-c2ccco2)oc1C
260 to 261 °C | CC1CC(=O)NN=C1c1ccc2[nH]c(CCCN3C(=O)c4ccccc4C3=O)nc2c1 (stereo not given)
143 to 144 °C | c1ccc(-c2ccc(-c3nc4n(n3)CCc3ccccc3-4)cc2)cc1
198 to 200 °C | Cc1c(F)c(N2CCNCC2)cc2c1c(=O)c(C(=O)O)cn2-c1ccc(F)cc1F
165 to 166 °C | COc1ccc(C(=O)C2CCC(C)(C(=O)O)C2(C)C)cc1 (stereo not given)
85 to 86 °C | CC(C)n1c(=Nc2ccccc2)sc2ncccc2c1=O
175 °C | COc1ccc(C2NC(=S)NC(C)=C2C(C)=O)cc1 (racemic)
79 to 80 °C | CC(C)(C)C(=O)CC(Sc1ccccc1)c1ccc(Cl)cc1Cl (stereo not given)
78 to 82 °C | CCN1C(=O)Cc2cc(Cl)cnc21
142 to 144 °C | CN(C)c1ccc(NC(=O)N(Cc2ccccc2)C[C@H]2CC[C@H](CN(Cc3ccccc3)C(=O)Nc3ccc(N(C)C)cc3)CC2)cc1
42 to 43.5 °C | C=C(CS(=O)CCCC)c1ccccc1 (stereo not given)
155 to 162 °C | Nc1nc(-c2cccc3ccccc23)co1
112 to 113 °C | CNNc1nncc(-c2ccccc2)n1
178 °C | COC(=O)c1cc(Nc2ccccc2)c(Nc2ccccc2)cc1C(=O)OC
156 to 158 °C | Cc1c(-n2ccnc2)[nH]c2ccccc12
101 to 102 °C | COC(=O)C1Sc2cc(OCc3ccccc3)ccc2OCC1=O (stereo not given)
223 to 224 °C | COc1ccc(Nc2nnc(Cc3ccncc3)c3ccccc23)cc1
158 to 161 °C | COC(=O)c1ccc(-c2ccc3nc(OC)ccc3c2)cc1
122 to 124 °C | CN(C)c1ccc(C(=O)c2ccncc2)cc1
201 to 202 °C | CCc1noc(C2=C(C)NC(C)=C(C(=O)OCCOC)C2c2cc(Cl)cc(Cl)c2)n1 (stereo not given)
71 to 74 °C | COC(=O)c1snc(-c2cc(C(F)(F)F)cc(C(F)(F)F)c2)c1C(=O)OC
276 to 278 °C | O=Cc1cc2n(n1)-c1ccc(Cl)cc1C(c1ccccc1)NC2=O (stereo not given)

SMILES | melting point
COc1ccc(N2CCOP(=O)(Oc3ccccc3)OCC2)cc1 | 124 to 126 °C
COc1cc(NC(=O)C2C(=O)N(C)C(=O)N(C)C2=O)ccc1Oc1nnc(C(C)(C)C)s1 | 178 to 179 °C
Cc1ncc(C(=O)N2CC2C#N)s1 (stereo not given) | 90 to 92 °C
COC1=CC(=O)c2c(c(COc3cc(C=Cc4cc(OC)c(OC)c(OC)c4)ccc3OC)c(C)n2C)C1=O | 192 to 194 °C

Reference: a melting point compilation (Tetko et al.; mined from patent text by program, amines drawn as free bases though some values may be those of a salt)
